Experiment [1] has as its system PRMT5-dependent Symmetric Di-methyl Arginine signal in HCT116 homozygous MTAP knockout cells. Description: SYM11 In-Cell Western, HCT116 MTAP knockout. Type of experiment: cell-based. The following applies: Homo sapiens, HCT-116, 96 h, HCT116 homozygous MTAP knockout cells, 4 days of treatment, SYM11/DRAQ5 ratio; read-out: In-cell-Western (SYM11) HCT116 MTAP_KO IC50.

For experiment [2], the system named is PRMT5-dependent Symmetric Di-methyl Arginine signal in HCT116 parental cells. Description: SYM11 In-Cell Western, HCT116 parental. Format: cell-based. The following applies: Homo sapiens, HCT-116, 96 h, 4 days of treatment, SYM11/DRAQ5 ratio. The essentials: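 HCT116 parental cells (2,000/well, McCoy's 5A with 10% FBS) dosed with PRMT5 inhibitors for four days at 37° C. Fixed in paraformaldehyde and methanol, then stained with SYM11 antibody and DRAQ5.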

Experiment [3] relates to HCT116 homozygous MTAP knockout cells. Description: Proliferation assay (CellTiter-Glo, 10 days of treatment), HCT116 MTAP knockout. Type of experiment: cell-based. The following applies: Homo sapiens, HCT-116, 240 h, read-out: Proliferation HCT116MTAP_KO IC50. The essentials:
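Viability of the CRISPR/Cas9 homozygous MTAP-knockout HCT116 line was read by CellTiter-Glo after 10 days of PRMT5 inhibitor exposure, with IC50 derived from the dose response. Compound was given the day after seeding and renewed at an identical concentration when cells were split 1:10 on day 6.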

A further experiment deals with HCT116 parental cells. Description: Proliferation assay (CellTiter-Glo, 10 days of treatment), HCT116 parental. Type of experiment: cell-based. The following applies: Homo sapiens, HCT-116, 240 h. The essentials:
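250 cells seeded in McCoy's 5A with 10% FBS, then given a dose response of PRMT5 inhibitor at 37 °C, 5% CO2 for five days. Cells were split 1:10 on Day 6 into fresh medium with the same compound concentration for 5 more days. Viability read on Day 11 by CellTiter-Glo; IC50 after 10 days of treatment.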

In the next experiment the target is PRMT5/MEP50 complex (Homo sapiens (Human), UniProt O14744). As to the kind of experiment: PRMT5:MEP50 HotSpot Assay (full-length histone H2A substrate, plus and minus MTA). Format: biochemical. In outline:
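Tritium incorporated into recombinant full-length histone H2A was counted by scintillation after stopped reactions were captured on filter paper.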

[4] abbreviates: IC50 + 2 μM MTA, in the presence of 2 μM MTA.

Like-named read-outs stand apart in the source and are kept apart here. Some results are limits rather than exact numbers.

The text below walks through data of patent US11479551B2, “MTA-cooperative PRMT5 inhibitors” (Mirati Therapeutics, Inc., priority 2019, dated 2022).

Sequence of PRMT5/MEP50 complex (O14744 2-637): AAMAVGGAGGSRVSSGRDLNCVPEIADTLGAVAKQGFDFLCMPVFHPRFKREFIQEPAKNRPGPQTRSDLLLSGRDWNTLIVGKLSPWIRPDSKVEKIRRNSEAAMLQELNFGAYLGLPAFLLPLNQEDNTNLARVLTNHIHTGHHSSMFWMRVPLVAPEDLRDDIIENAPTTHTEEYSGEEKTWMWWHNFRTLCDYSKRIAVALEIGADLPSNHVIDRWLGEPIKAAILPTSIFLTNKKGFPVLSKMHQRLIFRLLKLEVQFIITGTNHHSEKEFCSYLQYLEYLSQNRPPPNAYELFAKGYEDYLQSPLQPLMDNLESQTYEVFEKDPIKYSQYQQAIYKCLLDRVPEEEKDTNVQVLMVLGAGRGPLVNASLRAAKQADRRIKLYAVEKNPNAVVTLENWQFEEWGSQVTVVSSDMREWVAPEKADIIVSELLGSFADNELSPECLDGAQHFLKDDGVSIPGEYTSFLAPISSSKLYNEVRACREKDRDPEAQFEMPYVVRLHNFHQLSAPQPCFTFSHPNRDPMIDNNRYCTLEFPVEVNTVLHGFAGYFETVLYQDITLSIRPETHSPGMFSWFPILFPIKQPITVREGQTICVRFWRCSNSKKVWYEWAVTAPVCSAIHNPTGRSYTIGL
Sequence of PRMT5/MEP50 complex (Q9BQA1 2-342 partner): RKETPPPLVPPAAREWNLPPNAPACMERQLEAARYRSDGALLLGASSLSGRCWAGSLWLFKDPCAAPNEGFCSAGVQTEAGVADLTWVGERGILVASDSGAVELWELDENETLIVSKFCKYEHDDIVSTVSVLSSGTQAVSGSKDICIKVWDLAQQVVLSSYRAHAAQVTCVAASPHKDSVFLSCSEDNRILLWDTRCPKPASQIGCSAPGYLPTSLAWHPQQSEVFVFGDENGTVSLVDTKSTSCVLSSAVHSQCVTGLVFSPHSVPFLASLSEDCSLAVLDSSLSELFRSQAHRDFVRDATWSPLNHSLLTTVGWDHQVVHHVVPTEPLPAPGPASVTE

For `COc1cnc2ccc(-c3c(-c4ccc5c(=O)[nH]nc(CN)c5c4)cnn3C)c(C#N)c2c1` [Example 4-197, 6-(4-(4-(aminomethyl)-1-oxo-1,2-dihydrophthalazin-6-yl)-1-methyl-1H-pyrazol-5-yl)-3-methoxyquinoline-5-carbonitrile], the IC50 in experiment [1] was 25 nM; in experiment [2], above 1000 nM; in experiment [3] it was 256 nM; in the experiment on HCT116 parental cells, 8570 nM; at PRMT5/MEP50 complex (setting [4]), 719 nM.
The corresponding values for `Cc1cc(-c2cnn(C)c2-c2cccc(OC3CC3)c2C#N)cc2c(CN)n[nH]c(=O)c12` [Example 10-12, 2-(4-(4-(aminomethyl)-8-methyl-1-oxo-1,2-dihydrophthalazin-6-yl)-1-methyl-1H-pyrazol-5-yl)-6-cyclopropoxybenzonitrile] are 6 nM, above 1000 nM, 91 nM, 6200 nM and 155 nM.
With `Cn1ncc(-c2ccc3c(=O)[nH]nc(CN)c3c2)c1-c1cccc(C2CC2)c1C#N` [Example 4-198, 2-(4-(4-(aminomethyl)-1-oxo-1,2-dihydrophthalazin-6-yl)-1-methyl-1H-pyrazol-5-yl)-6-cyclopropylbenzonitrile], the IC50 is 21 nM in experiment [1]; 1270 nM in experiment [2]; 136 nM in experiment [3]; 7340 nM with HCT116 parental cells; 111 nM at PRMT5/MEP50 complex (setting [4]).
On to `Cn1ncc(-c2ccc3c(=O)[nH]nc(CN)c3c2)c1-c1ccc2ccccc2c1` [Example 4-139, 4-(aminomethyl)-6-(1-methyl-5-(naphthalen-2-yl)-1H-pyrazol-4-yl)phthalazin-1(2H)-one], for which the IC50 in experiment [1] was found to be 254 nM; in experiment [2], 5530 nM; in experiment [3], 1490 nM; in the experiment with HCT116 parental cells, 5070 nM; on PRMT5/MEP50 complex (setting [4]), 1230 nM.
The corresponding values for `Cn1ncc(-c2cc(F)c3c(=O)[nH]nc(CN)c3c2)c1-c1cccc(Cl)c1C#N` [Example 10-6, 2-(4-(4-(aminomethyl)-8-fluoro-1-oxo-1,2-dihydrophthalazin-6-yl)-1-methyl-1H-pyrazol-5-yl)-6-chlorobenzonitrile] are 219 nM, above 10000 nM, 4090 nM, above 10000 nM and 6630 nM.
As to `CCOc1cccc(-c2c(-c3ccc4c(=O)[nH]nc(CN)c4c3)cnn2C)c1C#N` [Example 4-146, 2-(4-(4-(aminomethyl)-1-oxo-1,2-dihydrophthalazin-6-yl)-1-methyl-1H-pyrazol-5-yl)-6-ethoxybenzonitrile], the IC50 in experiment [1] is 40 nM; in experiment [2], 6690 nM; in experiment [3], 261 nM; in the experiment on HCT116 parental cells it was above 10000 nM; on PRMT5/MEP50 complex (setting [4]), 569 nM.
On to `Cn1ncc(-c2ccc3c(=O)[nH]nc(CN)c3c2)c1-c1cc(Cl)c(Cl)cc1C#N` [Example 4-164, 2-(4-(4-(aminomethyl)-1-oxo-1,2-dihydrophthalazin-6-yl)-1-methyl-1H-pyrazol-5-yl)-4,5-dichlorobenzonitrile], for which the IC50 is 93.3 nM in experiment [1]; above 10000 nM in experiment [2]; 583 nM in experiment [3]; above 10000 nM in the experiment on HCT116 parental cells; 464 nM on PRMT5/MEP50 complex (setting [4]).
For `COc1cc(-c2c(-c3ccc4c(=O)[nH]nc(CN)c4c3)cnn2C)c(C#N)cc1Cl` [Example 4-130, 2-(4-(4-(aminomethyl)-1-oxo-1,2-dihydrophthalazin-6-yl)-1-methyl-1H-pyrazol-5-yl)-5-chloro-4-methoxybenzonitrile], the IC50 was 24 nM in experiment [1]; above 10000 nM in experiment [2]; 756 nM in experiment [3]; above 10000 nM in the experiment on HCT116 parental cells; 1950 nM on PRMT5/MEP50 complex (setting [4]).
Take `Cn1ncc(-c2ccc3c(=O)[nH]nc(CN)c3c2)c1-c1cc2ccccc2cc1C#N` [Example 4-128, 3-(4-(4-(aminomethyl)-1-oxo-1,2-dihydrophthalazin-6-yl)-1-methyl-1H-pyrazol-5-yl)-2-naphthonitrile]: the IC50 was found to be 39 nM in experiment [1]; 4020 nM in experiment [2]; 427 nM in experiment [3]; 9630 nM with HCT116 parental cells; 1310 nM at PRMT5/MEP50 complex (setting [4]).
`Cn1ncc(-c2ccc3c(=O)[nH]nc(CN)c3c2)c1-c1ccc2ccccc2c1C#N` [Example 4-147, 2-(4-(4-(aminomethyl)-1-oxo-1,2-dihydrophthalazin-6-yl)-1-methyl-1H-pyrazol-5-yl)-1-naphthonitrile]: the IC50 came out at 11 nM in experiment [1]; 1260 nM in experiment [2]; 50 nM in experiment [3]; 1910 nM in the experiment on HCT116 parental cells; 43 nM at PRMT5/MEP50 complex (setting [4]); 280 nM at PRMT5/MEP50 complex (in the absence of MTA, read-out: IC50).
`Cc1ccc(-c2c(-c3ccc4c(=O)[nH]nc(CN)c4c3)cnn2C)c(C#N)c1Cl` [Example 4-151, 2-(4-(4-(aminomethyl)-1-oxo-1,2-dihydrophthalazin-6-yl)-1-methyl-1H-pyrazol-5-yl)-6-chloro-5-methylbenzonitrile]: the IC50 in experiment [1] was 51 nM; in experiment [2], 5810 nM; in experiment [3], 504 nM; in the experiment on HCT116 parental cells, above 10000 nM; at PRMT5/MEP50 complex (setting [4]), 606 nM.
As to `CC(C)c1ccc(-c2c(-c3ccc4c(=O)[nH]nc(CN)c4c3)cnn2C)cc1` [Example 4-135, 4-(aminomethyl)-6-(5-(4-isopropylphenyl)-1-methyl-1H-pyrazol-4-yl)phthalazin-1(2H)-one], the IC50 in experiment [1] stood at 31 nM; in experiment [2], 3210 nM; in experiment [3], 3760 nM; in the experiment on HCT116 parental cells it was 6610 nM; on PRMT5/MEP50 complex (setting [4]) it was 641 nM.
On to `CCOc1ccc(-c2c(-c3ccc4c(=O)[nH]nc(CN)c4c3)cnn2C)cc1C#N` [Example 4-145, 5-(4-(4-(aminomethyl)-1-oxo-1,2-dihydrophthalazin-6-yl)-1-methyl-1H-pyrazol-5-yl)-2-ethoxybenzonitrile], for which the IC50 in experiment [1] came out at 190 nM; in experiment [2], 5490 nM; in experiment [3] it was 2160 nM; in the experiment on HCT116 parental cells, 3770 nM; on PRMT5/MEP50 complex (setting [4]) it was 873 nM.
On to `CCc1cccc(-c2c(-c3cc(C)c4c(=O)[nH]nc(CN)c4c3)cnn2C)c1C#N` [Example 10-7, 2-(4-(4-(aminomethyl)-8-methyl-1-oxo-1,2-dihydrophthalazin-6-yl)-1-methyl-1H-pyrazol-5-yl)-6-ethylbenzonitrile], for which the IC50 in experiment [1] is 31 nM; in experiment [2], above 1000 nM; in experiment [3] it was 103 nM; in the experiment on HCT116 parental cells, 8390 nM; on PRMT5/MEP50 complex (setting [4]), 107 nM.
For the compound `Cn1ncc(-c2ccc3c(=O)[nH]nc(CN)c3c2)c1-c1ccc(Cl)c(Cl)c1C#N` [Example 4-148, 6-(4-(4-(aminomethyl)-1-oxo-1,2-dihydrophthalazin-6-yl)-1-methyl-1H-pyrazol-5-yl)-2,3-dichlorobenzonitrile], the IC50 in experiment [1] came to 30 nM; in experiment [2], 8550 nM; in experiment [3] it was 307 nM; with HCT116 parental cells it was 7750 nM; on PRMT5/MEP50 complex (setting [4]), 229 nM.
As for `Cn1ncc(-c2ccc3c(=O)[nH]nc(CN)c3c2)c1-c1cc(Cl)cc(OC2CC2)c1C#N` [Example 4-188, 2-(4-(4-(aminomethyl)-1-oxo-1,2-dihydrophthalazin-6-yl)-1-methyl-1H-pyrazol-5-yl)-4-chloro-6-cyclopropoxybenzonitrile], the IC50 in experiment [1] was 4 nM; in experiment [2], above 10000 nM; in experiment [3], 39 nM; in the experiment with HCT116 parental cells, 904 nM; on PRMT5/MEP50 complex (setting [4]) it was 99 nM.
For the compound `COc1cc(-c2c(-c3ccc4c(=O)[nH]nc(CN)c4c3)cnn2C)c(C#N)c2ccccc12` [Example 4-205, 2-(4-(4-(aminomethyl)-1-oxo-1,2-dihydrophthalazin-6-yl)-1-methyl-1H-pyrazol-5-yl)-4-methoxy-1-naphthonitrile], the IC50 was 6 nM in experiment [1]; above 1000 nM in experiment [2]; 59 nM in experiment [3]; 683 nM in the experiment with HCT116 parental cells; 23 nM at PRMT5/MEP50 complex (setting [4]).
The corresponding values for `Cn1ncc(-c2ccc3c(=O)[nH]nc(CN)c3c2)c1-c1ccc2ncccc2c1C#N` [Example 4-149, 6-(4-(4-(aminomethyl)-1-oxo-1,2-dihydrophthalazin-6-yl)-1-methyl-1H-pyrazol-5-yl)quinoline-5-carbonitrile] are 135 nM, 6350 nM, 359 nM, above 10000 nM and 282 nM.
As for `COc1cc(C#N)c(-c2c(-c3ccc4c(=O)[nH]nc(CN)c4c3)cnn2C)cc1OC` [Example 4-129, 2-(4-(4-(aminomethyl)-1-oxo-1,2-dihydrophthalazin-6-yl)-1-methyl-1H-pyrazol-5-yl)-4,5-dimethoxybenzonitrile], the IC50 is 380 nM in experiment [1]; above 10000 nM in experiment [2]; 1350 nM in experiment [3]; above 10000 nM in the experiment on HCT116 parental cells; 1650 nM on PRMT5/MEP50 complex (setting [4]).
